The source of these data is US20080032950A1, “Neurologically-Active Compounds” (The University of Sydney, priority 2004, published 2008).

In one assay the target is T1, GABAC (ρ1) (Homo sapiens, UniProt P24046).
T1 construct: expressed in transfected cells; host or cells: Xenopus laevis oocytes injected with mRNA
Description: Two-electrode voltage clamp on ρ1 GABAC receptors expressed in Xenopus oocytes. Format: cell-based. The note with it: for Selectivity (receptor subtype preferred): among GABAA, GABAB, GABAC; for Selectivity (fold): for GABAC over GABAA and GABAB. The protocol:
(§1) The activity of compounds (15), (16), (17), (18) and (19) on GABA receptor sub-types were determined as described in Chebib, M., Mewett, K. N., Johnston, G. A. R., 1998, “GABAC receptor antagonists differentiate between human ρ1 and ρ2 receptors expressed in Xenopus oocytes”, European Journal of Pharmacology 357, 227-234.
(§2) In this method, oocytes were harvested from Xenopus laevis and defolliculated. The oocytes were then stored in ND96 solution (96 mM NaCl, 2 mM KCl, 1.8 mM CaCl2.2H2O, 1 mM MgCl2.6H2O, 5 mM HEPES (hemi-Na), pH 7.5) supplemented with 2.5 mM sodium pyruvate, 0.5 mM theophylline and 50 μgml^−1 gentamycin. The storage solution was changed daily.
(§3) Stage V-VI oocytes were injected with mRNA (10 ng/50 nl) and then stored at 16° C. Recordings of receptor activity were obtained after two to eight days by a two-electrode voltage clamp by means of a Geneclamp 500 amplifier (Axon Instruments Inc., Foster City, Calif.), a MacLab 2e recorder (AD Instruments, Sydney, NSW) and Chart version 3.6.3 program. Oocytes were voltage clamped at −60 mV and the preparation was continually perfused with ND96 solution at room temperature. Known concentrations of agonists and antagonists dissolved in ND96 were applied in the absence and presence of GABA respectively until maximum current was reached, at which time the oocyte was washed for five to ten minutes to allow complete recovery of response to a known dose of GABA. In the case of antagonists, two dose response curves were conducted on the same cell to enable calculation of single point estimates: a GABA dose-response curve and a GABA dose-response curve in the presence of a known concentration of antagonist. All compounds were tested on oocytes from at least three harvests.
The activity of this compound on the GABA receptor sub-types was determined by the same procedure as described in Example 2 for compounds (15) to (19). (±)-3-Aminocyclopente-1-nyl)methylphosphinic acid (200 μM) had no effect alone on ρ1 GABAC receptors but in the presence of 1 μM GABA inhibited the response by 65%.
(Two-electrode voltage clamp is typically applied to oocytes expressing channels or transporters.)

A further assay addresses T2, GABAB (GB1) (Homo sapiens, UniProt Q9UBS5).
T2 construct: expressed in transfected cells; host or cells: Xenopus laevis oocytes injected with mRNA
Description: Two-electrode voltage clamp on GABAB receptors expressed in Xenopus oocytes. The format is cell-based. As to conditions: for GABAB (GB1) activity (type of action): voltage clamp -60 mV. The protocol: as §1, §2, §3

The next assay concerns the target T3, GABAA (α1β2γ2L) (Homo sapiens, UniProt P14867+P47870).
T3 construct: expressed in transfected cells; host or cells: Xenopus laevis oocytes injected with mRNA
Description: Two-electrode voltage clamp on GABAA receptors expressed in Xenopus oocytes. As to conditions: for GABAA (α1β2γ2L) activity (type of action): Xenopus oocytes, voltage clamp -60 mV. Format: cell-based. The protocol: as §1, §2, §3

Another assay deals with GABAC receptors. As to conditions: antagonist; Woodward et al, 1993; cited from earlier work.
The next assay concerns the target GABAC receptor (Homo sapiens, UniProt P24046). As to conditions: cited from earlier work.
[1] abbreviates: Xenopus oocytes, voltage clamp -60 mV.

Where two headings read alike, the source gives them in different places.

As a reminder, the Kb is the equilibrium dissociation constant of an antagonist, usually derived from a functional assay.

T1 sequence (P24046 22-479): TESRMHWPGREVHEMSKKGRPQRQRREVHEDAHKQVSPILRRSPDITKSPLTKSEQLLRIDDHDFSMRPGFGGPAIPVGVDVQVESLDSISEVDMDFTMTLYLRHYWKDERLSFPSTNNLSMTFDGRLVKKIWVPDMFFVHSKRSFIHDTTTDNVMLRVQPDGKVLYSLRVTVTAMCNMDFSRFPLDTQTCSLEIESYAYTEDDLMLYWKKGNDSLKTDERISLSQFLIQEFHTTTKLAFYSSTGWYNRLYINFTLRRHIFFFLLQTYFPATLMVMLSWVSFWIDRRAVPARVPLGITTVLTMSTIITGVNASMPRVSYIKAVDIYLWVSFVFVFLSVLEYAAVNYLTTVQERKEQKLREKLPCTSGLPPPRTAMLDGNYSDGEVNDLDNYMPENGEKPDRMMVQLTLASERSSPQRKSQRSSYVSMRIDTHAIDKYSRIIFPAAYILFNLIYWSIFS
T3 sequence (P14867 28-456): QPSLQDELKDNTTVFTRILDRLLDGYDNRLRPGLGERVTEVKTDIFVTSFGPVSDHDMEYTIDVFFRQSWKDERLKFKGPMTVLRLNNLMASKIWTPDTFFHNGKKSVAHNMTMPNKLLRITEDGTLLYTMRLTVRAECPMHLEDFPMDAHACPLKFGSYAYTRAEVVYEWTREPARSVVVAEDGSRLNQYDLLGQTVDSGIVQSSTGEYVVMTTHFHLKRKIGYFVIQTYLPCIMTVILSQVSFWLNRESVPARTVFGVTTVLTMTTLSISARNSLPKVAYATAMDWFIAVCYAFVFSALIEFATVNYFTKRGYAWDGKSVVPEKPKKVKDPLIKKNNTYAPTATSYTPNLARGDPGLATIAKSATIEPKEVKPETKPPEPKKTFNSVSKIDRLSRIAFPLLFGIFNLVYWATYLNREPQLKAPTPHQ
T3 sequence (P47870 25-512 limits assumed): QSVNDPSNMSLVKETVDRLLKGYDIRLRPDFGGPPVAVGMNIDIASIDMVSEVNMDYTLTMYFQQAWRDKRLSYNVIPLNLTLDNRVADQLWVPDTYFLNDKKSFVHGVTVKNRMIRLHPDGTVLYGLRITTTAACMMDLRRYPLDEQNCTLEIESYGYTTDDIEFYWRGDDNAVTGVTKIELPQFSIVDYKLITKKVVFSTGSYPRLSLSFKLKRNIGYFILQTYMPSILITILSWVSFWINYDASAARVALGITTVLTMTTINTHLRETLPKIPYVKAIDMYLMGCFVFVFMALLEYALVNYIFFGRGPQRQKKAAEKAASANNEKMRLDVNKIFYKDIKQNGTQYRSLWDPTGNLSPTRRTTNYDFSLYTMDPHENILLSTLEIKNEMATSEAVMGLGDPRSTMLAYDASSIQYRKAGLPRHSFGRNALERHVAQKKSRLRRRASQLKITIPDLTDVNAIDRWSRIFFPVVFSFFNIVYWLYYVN
T3 sequence (P18507 40-475 partner): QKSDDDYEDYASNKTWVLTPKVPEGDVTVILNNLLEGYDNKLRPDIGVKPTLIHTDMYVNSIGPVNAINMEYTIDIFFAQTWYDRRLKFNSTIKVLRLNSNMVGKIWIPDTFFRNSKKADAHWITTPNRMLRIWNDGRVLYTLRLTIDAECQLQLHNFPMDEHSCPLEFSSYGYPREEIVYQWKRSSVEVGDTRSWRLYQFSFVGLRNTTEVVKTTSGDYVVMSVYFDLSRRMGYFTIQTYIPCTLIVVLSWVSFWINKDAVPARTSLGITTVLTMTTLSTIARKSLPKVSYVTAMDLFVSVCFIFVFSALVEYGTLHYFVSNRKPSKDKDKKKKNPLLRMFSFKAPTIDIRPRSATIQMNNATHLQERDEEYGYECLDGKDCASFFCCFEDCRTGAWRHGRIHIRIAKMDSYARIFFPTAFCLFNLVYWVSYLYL
T2 sequence (Q9UBS5 20-961, species assumed): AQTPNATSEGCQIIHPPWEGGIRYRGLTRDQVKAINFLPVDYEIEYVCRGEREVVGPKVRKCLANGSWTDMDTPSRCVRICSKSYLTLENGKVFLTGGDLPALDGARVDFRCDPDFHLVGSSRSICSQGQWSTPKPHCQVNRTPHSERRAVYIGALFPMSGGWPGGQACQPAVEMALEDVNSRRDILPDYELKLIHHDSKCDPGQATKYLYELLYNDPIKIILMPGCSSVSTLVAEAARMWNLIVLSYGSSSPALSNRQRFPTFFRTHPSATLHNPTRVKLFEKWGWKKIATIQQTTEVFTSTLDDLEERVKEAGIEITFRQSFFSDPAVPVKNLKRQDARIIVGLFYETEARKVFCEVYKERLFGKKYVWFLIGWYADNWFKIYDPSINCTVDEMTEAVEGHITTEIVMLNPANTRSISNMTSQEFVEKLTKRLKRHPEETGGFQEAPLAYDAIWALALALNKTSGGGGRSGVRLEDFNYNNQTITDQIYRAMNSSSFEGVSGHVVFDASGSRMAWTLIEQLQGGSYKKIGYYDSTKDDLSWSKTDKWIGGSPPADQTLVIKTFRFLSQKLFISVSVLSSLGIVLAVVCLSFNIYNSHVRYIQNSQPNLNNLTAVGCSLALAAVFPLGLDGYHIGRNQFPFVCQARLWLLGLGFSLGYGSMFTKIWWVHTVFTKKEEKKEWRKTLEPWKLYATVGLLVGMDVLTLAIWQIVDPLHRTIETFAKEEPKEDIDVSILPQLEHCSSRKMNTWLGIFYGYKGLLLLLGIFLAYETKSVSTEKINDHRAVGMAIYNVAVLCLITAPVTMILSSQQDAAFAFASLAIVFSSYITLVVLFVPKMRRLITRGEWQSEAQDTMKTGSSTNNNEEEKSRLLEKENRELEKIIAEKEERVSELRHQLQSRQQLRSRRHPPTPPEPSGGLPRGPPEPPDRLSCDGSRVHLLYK
T2 sequence (O75899 42-941 partner, species assumed): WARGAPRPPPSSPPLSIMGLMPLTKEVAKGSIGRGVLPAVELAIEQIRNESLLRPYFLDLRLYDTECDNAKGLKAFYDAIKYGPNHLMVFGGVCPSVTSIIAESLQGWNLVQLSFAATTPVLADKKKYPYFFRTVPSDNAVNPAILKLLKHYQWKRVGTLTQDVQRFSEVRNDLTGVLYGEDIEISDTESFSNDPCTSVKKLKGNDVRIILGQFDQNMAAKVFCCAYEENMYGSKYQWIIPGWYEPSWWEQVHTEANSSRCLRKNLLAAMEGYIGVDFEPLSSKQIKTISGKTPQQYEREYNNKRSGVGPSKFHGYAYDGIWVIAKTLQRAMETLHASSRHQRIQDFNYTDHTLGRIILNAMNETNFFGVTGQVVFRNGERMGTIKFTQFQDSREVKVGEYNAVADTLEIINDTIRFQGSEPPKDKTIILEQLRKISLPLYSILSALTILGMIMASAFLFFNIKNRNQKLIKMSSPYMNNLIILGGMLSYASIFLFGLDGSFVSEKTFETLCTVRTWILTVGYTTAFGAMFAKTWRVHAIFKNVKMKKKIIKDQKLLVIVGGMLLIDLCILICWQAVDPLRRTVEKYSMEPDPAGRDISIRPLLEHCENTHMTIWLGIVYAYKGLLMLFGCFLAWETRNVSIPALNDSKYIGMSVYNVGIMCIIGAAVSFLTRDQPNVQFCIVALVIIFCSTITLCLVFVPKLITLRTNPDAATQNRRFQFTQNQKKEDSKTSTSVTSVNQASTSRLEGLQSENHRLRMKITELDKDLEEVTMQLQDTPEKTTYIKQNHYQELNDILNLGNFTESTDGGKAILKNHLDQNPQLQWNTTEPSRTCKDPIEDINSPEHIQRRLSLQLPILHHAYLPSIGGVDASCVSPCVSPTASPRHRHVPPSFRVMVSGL
Chain of GABAC receptor (P24046 22-479): as the sequence (P24046 22-479) above

In the case of `CP(=O)(O)C1=CCC(N)C1` (racemic) [Compound 15, (±)-(4-Aminocyclopent-1-enyl)methylphosphinic acid], on GABAC (ρ1) (setting [1]), the “GABAC (ρ1) activity (type of action)” value was “Antagonist”. Besides, on GABAC (ρ1), the “Selectivity (receptor subtype preferred)” value was “GABAC” and the “Selectivity (fold)” value was “˜50x”. Further, on GABAB (GB1) (Xenopus oocytes), the “GABAB (GB1) activity (type of action)” value is on record as “Partial Agonist”. Further, at GABAA (α1β2γ2L), the IC50 was greater than 300 µM and the “GABAA (α1β2γ2L) activity (type of action)” value (shortened to “GABAA (α1β2γ2L) activity”) is listed as “Antagonist”.

With `CCP(=O)(O)C1=CCC(N)C1` (racemic) [Compound 16, (±)-(4-Aminocyclopent-1-enyl)ethylphosphinic acid], the “GABAC (ρ1) activity (type of action)” value at GABAC (ρ1) (setting [1]) is reported as “Antagonist”. For the same compound, on GABAC (ρ1), the “Selectivity (receptor subtype preferred)” value is reported as “GABAC” and the “Selectivity (fold)” value is listed as “˜25x”. For the same compound, the IC50 at GABAB (GB1) was greater than 300 µM. Besides, the “GABAB (GB1) activity (type of action)” value at GABAB (GB1) (Xenopus oocytes) is on record as “Antagonist”. Moreover, at GABAA (α1β2γ2L), the IC50 was greater than 600 µM and the “GABAA (α1β2γ2L) activity” value was “Antagonist”.

As to `CC(C)P(=O)(O)C1=CCC(N)C1` (racemic) [Compound 17, (±)-(4-Aminocyclopent-1-enyl)isopropylphosphinic acid], on GABAC (ρ1), the IC50 turned out to be 6.34 µM, the “Selectivity (receptor subtype preferred)” value is listed as “GABAC” and the “Selectivity (fold)” value is listed as “˜50x”. In addition, the “GABAC (ρ1) activity (type of action)” value at GABAC (ρ1) (setting [1]) was “Antagonist”. Further, at GABAB (GB1), the IC50 is greater than 300 µM. Further, the “GABAB (GB1) activity (type of action)” value on GABAB (GB1) (Xenopus oocytes) is “Antagonist”. In addition, on GABAA (α1β2γ2L), the IC50 was greater than 600 µM and the “GABAA (α1β2γ2L) activity” value is “Antagonist”.

For `CCCCP(=O)(O)C1=CCC(N)C1` (racemic) [Compound 18, (±)-(4-Aminocyclopent-1-enyl)butylphosphinic acid], the “GABAC (ρ1) activity (type of action)” value at GABAC (ρ1) (setting [1]) is “Antagonist”. Besides, at GABAC (ρ1), the “Selectivity (receptor subtype preferred)” value is listed as “GABAC” and the “Selectivity (fold)” value was “˜100x”. On GABAB (GB1), this compound showed an IC50 of roughly 300 µM. In addition, the “GABAB (GB1) activity (type of action)” value on GABAB (GB1) (Xenopus oocytes) is “Antagonist”. At GABAA (α1β2γ2L), the IC50 is greater than 300 µM and the “GABAA (α1β2γ2L) activity” value was “Antagonist”.

On to `NC1CC=C(P(=O)(O)Cc2ccccc2)C1` (racemic) [Compound 19, (±)-(4-Aminocyclopent-1-enyl)benzylphosphinic acid], for which the “GABAC (ρ1) activity (type of action)” value at GABAC (ρ1) (setting [1]) is on record as “Antagonist”. Further, the IC50 on GABAC (ρ1) (Xenopus oocytes, voltage clamp -60 mV, read-out: GABAC (ρ1) IC50) is greater than 300 µM. Besides, the “GABAB (GB1) effect” value on GABAB (GB1) (at ~300 μM, Xenopus oocytes) is given as “(No effect ˜ 300 μM)”. At GABAA (α1β2γ2L), the “GABAA (α1β2γ2L) activity” value is given as “Antagonist”.

Consider `NCCC[PH](=O)O` [CGP27492, 3-aminopropylphosphinic acid], for which, on GABAC receptors, the Kb is 0.8 µM.

As to `CP(=O)(O)CCCN` [CGP35024, (3-aminopropyl)methylphosphinic acid], the Kb on GABAC receptors was 0.8 µM.

In the case of `NCCCP(=O)(O)O` [Compound 3-APA, 3-aminopropylphosphonic acid], the Kb on GABAC receptors was 1.8 µM.

For “(1,2,5,6-tetrahydropyridine-4-yl)methylphosphinic acid [TPMPA]”, on GABAC receptor (antagonist, Murata et al, 1996, Ragozzinno et al, 1996, read-out: KB at GABAC receptors), the Kb was 2.1 µM. For the same compound, at GABAC receptor (read-out: Concentration producing 50% inhibition of GABAC receptor activation), the IC50 was 2.1 µM.
